The target of test [1] is T1, KRAS G12C (Homo sapiens, UniProt P01116, G12C). Put plainly: Cell Activity Assay: IC50 in H358 cells. The format is cell-based. Set-up: endogenous in cells. As for the experimental part: Compounds presented in the present invention lead to the accumulation of the GDP bound Ras upon treatment of human cancer cell line.
The accumulation of the GDP-bound KRAS G12C in cellular environment was measured based on the principle that KRAS G12C only binds to its downstream kinase; Raf-1 (MAP Kinase Kinase Kinase), when in its active-GTP bound state. In this state, Ras binded to a domain of Raf-1 kinase referred to as the Ras Binding Domain (RBD).
Raf-1 RBD (LJIC-1988A1) was diluted to 100 ng/well in PBS and 5 μl/well was spot coated onto MSD high bind SECTOR plates (L15XB). Plates were incubated at room temperature for 1 hour on an orbital shaker. Plates were washed with PBS/0.05% Tween-20 and 50 μl/well of thawed lysate samples were added, followed by 50 μl of 1% MSD Blocker A in PBS/0.05 Tween-20 (R93BA). Plates were incubated for 1 hour on an orbital shaker and washed with PBS/0.05% Tween-20. 25 μl/well of Anti-pan-Ras Antibody (Cell Biolabs 244003) diluted 1:3000 was added in 1% MSD Blocker A solution and plates were incubated for 1 hour on an orbital shaker and washed with PBS/0.05% Tween-20. SULFO-TAG goat anti-mouse secondary antibody (MSD R32AC) was diluted 1:500 in MSD Blocker A solution and added at 25 μL/well. Plates were incubated for 1 hour on an orbital shaker and washed with PBS/0.05% Tween-20. 150 μl/well of Read Buffer T (MSD R92TC) diluted 1:3 in H2O was added and plates were read on a Meso Scale Discovery Sector Imager S600.
KRAS signal was normalized to maximum inhibition and DMSO control values, and IC50 values were generated using a 4 parameter fit of the dose response curve. The decrease in IC50 reflects that the exemplary compound lead to a higher level of accumulation of GDP-bound KRAS G12C than another exemplary compounds at specific timepoint of treatment of cancer cell line.

Test [2] has as its target T1, KRAS G12C. The test is described as follows: Cell Activity Assay: accumulation of GDP-bound KRAS G12C in MIAPaCa-2 cells (Raf-1 RBD capture, MSD readout). The settings on record: 6 hours, assay limit is 30.00. It is filed as cell-based. Set-up: endogenous in cells; host or cells: MIAPaCa-2. Put shortly:
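MIAPaCa-2 cells exposed 6 h at 37 °C to 3-fold compound dilutions (0.3% DMSO final), then lysed. Active GTP-KRAS captured on Raf-1 RBD-coated plates, detected with anti-pan-Ras and SULFO-TAG secondary by MSD electrochemiluminescence. Signal normalized to DMSO and maximum inhibition; IC50 from 4-parameter fit.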

For test [3], the target named is T2, GDP-loaded KRAS (1-169) G12C, C51S, C80L, C118S (Homo sapiens, UniProt P01116, C118S/C51S/C80L/G12C).
T2 construct: GDP-loaded KRAS (1-169) G12C, C51S, C80L, C118S
The test is described as follows: Mass Spectrometry Reactivity Assay (MSRA): covalent adduct of compound and KRAS G12C, Percent Modification. The settings on record: for MSRA (% modification) 10 μM 0.25 hr / MSRA (% modification) 10 μM 0.50 hr: 10 μM compound; for MSRA (% modification) 5.0 μM 0.25 hr / MSRA (% modification) 5.0 μM 0.017 hr: 5.0 μM compound. It is filed as binding. Summed up: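 GDP-loaded KRAS(1-169) G12C/C51S/C80L/C118S at 5 μM in 25 mM Hepes pH 7.5, 200 mM NaCl, 5% glycerol incubated at RT with compound (typically 5 or 10 μM final, 1% DMSO). Quenched in formic acid at 1-60 min; intact-protein LC-TOF MS gives % modification = modified/(modified+unmodified).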

This note sets out measurements from patent US10662204B2 (PFIZER INC., priority 2018, dated 2020).

A word on the IC50: it is the point on the concentration scale where inhibition reaches its midpoint.

Take `C=CC(=O)N1CCN(c2nc(OC[C@@H]3CN(C)C[C@H]3OC)nc3c(Oc4c(Cl)c(F)cc5[nH]ncc45)nc(Cl)cc23)CC1` [Example 19G, 1-[4-(6-chloro-8-[(5-chloro-6-fluoro-1H-indazol-4-yl)oxy]-2-{[(3S,4S)-4-methoxy-1-methylpyrrolidin-3-yl]methoxy}pyrido[3,4-d]pyrimidin-4-yl)piperazin-1-yl]prop-2-en-1-one]: the IC50 in test [1] was determined as 0.109 µM; in test [2] it was 0.051 µM. Further, the “MSRA (% modification) 10 μM 0.25 hr” value in test [3] came to 60%.
`C=CC(=O)N1CCN(c2ncnc3c(Oc4c(Cl)c(F)cc5[nH]ncc45)nc(Cl)cc23)CC1` [Example 20A, 1-(4-{6-chloro-8-[(5-chloro-6-fluoro-1H-indazol-4-yl)oxy]pyrido[3,4-d]pyrimidin-4-yl}piperazin-1-yl)prop-2-en-1-one]: the IC50 in test [1] is 0.758 µM. In addition, in test [2], the IC50 worked out at 0.255 µM. Also, in test [3], the “MSRA (% modification) 5.0 μM 0.25 hr” value stood at 85%, the “MSRA (% modification) 10 μM 0.25 hr” value is given as 73% and the “MSRA (% modification) 10 μM 0.50 hr” value is given as 80%.
Turning to `C=CC(=O)N1CCN(c2ncnc3c(Oc4c(Cl)c(C)cc5[nH]ncc45)nccc23)CC1` [Example 11A, 1-(4-{8-[(5-chloro-6-methyl-1H-indazol-4-yl)oxy]pyrido[3,4-d]pyrimidin-4-yl}piperazin-1-yl)prop-2-en-1-one], the IC50 in test [1] turned out to be 2.56 µM. The same compound displayed an IC50 in test [2] of 0.892 µM. For the same compound, in test [3], the “MSRA (% modification) 10 μM 0.25 hr” value is on record as 44% and the “MSRA (% modification) 10 μM 0.50 hr” value is 68%.
`C=CC(=O)N1CCN(c2nc(OCC3CCCO3)nc3c(Oc4c(Cl)c(F)cc5[nH]ncc45)nc(Cl)cc23)CC1` (centres unmarked) [Example 11G, 1-(4-{6-chloro-8-[(5-chloro-6-fluoro-1H-indazol-4-yl)oxy]-2-(tetrahydrofuran-2-ylmethoxy)pyrido[3,4-d]pyrimidin-4-yl}piperazin-1-yl)prop-2-en-1-one]: the IC50 came to 0.448 µM in test [1] and 0.102 µM in test [2]. Besides, the “MSRA (% modification) 10 μM 0.25 hr” value in test [3] stood at 77%.
For the compound `C=CC(=O)N1CCN(c2nc(OC[C@H]3CN(C)C[C@@H]3OC)nc3c(Oc4c(Cl)c(F)cc5[nH]ncc45)nc(Cl)cc23)CC1` [Example 18G, 1-[4-(6-chloro-8-[(5-chloro-6-fluoro-1H-indazol-4-yl)oxy]-2-{[(3R,4R)-4-methoxy-1-methylpyrrolidin-3-yl]methoxy}pyrido[3,4-d]pyrimidin-4-yl)piperazin-1-yl]prop-2-en-1-one], the IC50 in test [1] amounted to 0.087 µM. In test [2], this compound gave an IC50 of 0.034 µM. Also, in test [3], the “MSRA (% modification) 5.0 μM 0.017 hr” value stood at 43%, the “MSRA (% modification) 5.0 μM 0.25 hr” value was determined as 88%, the “MSRA (% modification) 10 μM 0.25 hr” value is 81% and the “MSRA (% modification) 10 μM 0.50 hr” value came to 84%.
`C=CC(=O)N1CCN(c2nc(OC[C@@H]3CCCN3C)nc3c(Oc4c(C)ccc5[nH]ncc45)cccc23)CC1` [Example 07E, 1-[4-(8-[(5-methyl-1H-indazol-4-yl)oxy]-2-{[(2S)-1-methylpyrrolidin-2-yl]methoxy}quinazolin-4-yl)piperazin-1-yl]prop-2-en-1-one] came in with an IC50 in test [1] of 0.501 µM. In test [2], this compound gave an IC50 of 0.23 µM. In test [3], the “MSRA (% modification) 5.0 μM 0.25 hr” value was found to be 67%, the “MSRA (% modification) 10 μM 0.25 hr” value is on record as 79% and the “MSRA (% modification) 10 μM 0.50 hr” value is listed as 82%.
As for `C=CC(=O)N1CCN(c2nc(OC[C@H]3CCOC3)nc3c(Oc4c(Cl)c(F)cc5[nH]ncc45)nccc23)CC1` [Example 04H, 1-(4-{8-[(5-chloro-6-fluoro-1H-indazol-4-yl)oxy]-2-[(3S)-tetrahydrofuran-3-ylmethoxy]pyrido[3,4-d]pyrimidin-4-yl}piperazin-1-yl)prop-2-en-1-one], the IC50 in test [2] was determined as 0.465 µM. Moreover, in test [3], the “MSRA (% modification) 5.0 μM 0.25 hr” value is recorded as 65% and the “MSRA (% modification) 10 μM 0.25 hr” value came to 73%.
Turning to `C=CC(=O)N1CCN(c2nc(O[C@@H]3CN(C)C[C@H]3OC)nc3c(Oc4c(Cl)ccc5[nH]ncc45)nccc23)CC1` [Example 49I], in test [2], the IC50 was determined as 0.17 µM. For the same compound, the “MSRA (% modification) 5.0 μM 0.017 hr” value in test [3] is 34%.
The matching figures for `C=CC(=O)N1CCN(c2nc(O[C@@H]3COC[C@H]3N(C)C)nc3c(Oc4c(Cl)c(F)cc5[nH]ncc45)nccc23)CC1` (racemic) [Example 23I, rac-1-[4-(8-[(5-chloro-6-fluoro-1H-indazol-4-yl)oxy]-2-{[(3S,4R)-4-(dimethyl-amino)oxolan-3-yl]oxy}pyrido [3,4-d]pyrimidin-4-yl)piperazin-1-yl]prop-2-en-1-one]: 0.348 µM and 12%.
For `C=CC(=O)N1CCN(c2nc(O[C@@H]3CN(C)C[C@H]3OC)nc3c(Oc4c(Cl)c(Cl)cc5[nH]ncc45)nccc23)CC1` [Example 19H, 1-[4-(8-[(5,6-dichloro-1H-indazol-4-yl)oxy]-2-{[(3R,4R)-4-methoxy-1-methylpyrrolidin-3-yl]oxy}pyrido[3,4-d]pyrimidin-4-yl)piperazin-1-yl]prop-2-en-1-one], in that order: 0.004 µM and 66%.
In the case of `C=CC(=O)N1CCN(c2ncnc3c(Oc4c(Cl)c(F)cc5[nH]ncc45)nc(C#N)cc23)CC1` [Example 32A, 4-(4-acryloylpiperazin-1-yl)-8-[(5-chloro-6-fluoro-1H-indazol-4-yl)oxy]pyrido[3,4-d]pyrimidine-6-carbonitrile], 0.681 µM corresponded to half-maximal inhibition in test [2] (IC50). In test [3], the “MSRA (% modification) 10 μM 0.50 hr” value amounted to 74%.
In turn, `C=CC(=O)N1CCN(c2nc(OCC3(F)CCN(C)CC3)nc3c(Oc4c(Cl)c(F)cc5[nH]ncc45)nccc23)CC1` [Example 12I, 1-(4-{8-[(5-chloro-6-fluoro-1H-indazol-4-yl)oxy]-2-[(4-fluoro-1-methyl-piperidin-4-yl)methoxy]pyrido [3,4-d]pyrimidin-4-yl}piperazin-1-yl)prop-2-en-1-one] displayed a 50% inhibitory concentration (IC50) in test [2] of 0.12 µM. In addition, the “MSRA (% modification) 5.0 μM 0.25 hr” value in test [3] worked out at 78%.
In test [2], `C=CC(=O)N1CCN(c2nc(Oc3cccc4c3CN(C)CC4)nc3c(Oc4c(Cl)c(F)cc5[nH]ncc45)nccc23)CC1` [Example 42I, 1-(4-{8-[(5-chloro-6-fluoro-1H-indazol-4-yl)oxy]-2-[(2-methyl-1,2,3,4-tetrahydro-isoquinolin-8-yl)oxy]pyrido [3,4-d]pyrimidin-4-yl}piperazin-1-yl)prop-2-en-1-one] displayed an IC50 of 0.01 µM. Moreover, the “MSRA (% modification) 5.0 μM 0.017 hr” value in test [3] is reported as 73%.
In test [2], `C=CC(=O)N1CCN(c2nc(OC[C@@H]3CCCN3C)nc3c(Oc4c(C)c(Cl)cc5[nH]ncc45)cccc23)CC1` [Example 22E, 1-[4-(8-[(6-chloro-5-methyl-1H-indazol-4-yl)oxy]-2-{[(2S)-1-methylpyrrolidin-2-yl]methoxy}quinazolin-4-yl)piperazin-1-yl]prop-2-en-1-one] showed an IC50 of 0.056 µM. Moreover, in test [3], the “MSRA (% modification) 5.0 μM 0.25 hr” value was determined as 83%, the “MSRA (% modification) 10 μM 0.25 hr” value came to 81% and the “MSRA (% modification) 10 μM 0.50 hr” value is given as 83%.
In turn, `C=CC(=O)N1CCN(c2nc(Oc3cccnc3OC)nc3c(Oc4c(Cl)c(F)cc5[nH]ncc45)nccc23)CC1` [Example 08I, 1-(4-{8-[(5-chloro-6-fluoro-1H-indazol-4-yl)oxy]-2-[(2-methoxy-pyridin-3-yl)oxy]pyrido [3,4-d]pyrimidin-4-yl}piperazin-1-yl)prop-2-en-1-one] came in with an IC50 in test [2] of 0.265 µM. Also, the “MSRA (% modification) 5.0 μM 0.25 hr” value in test [3] is reported as 65%.
As for `C=CC(=O)N1CCN(c2ncnc3c(Oc4c(C)c(Cl)cc5[nH]ncc45)nccc23)CC1` [Example 14A, 1-(4-{8-[(6-chloro-5-methyl-1H-indazol-4-yl)oxy]pyrido[3,4-d]pyrimidin-4-yl}piperazin-1-yl)prop-2-en-1-one], the IC50 in test [2] is 0.545 µM. Further, in test [3], the “MSRA (% modification) 5.0 μM 0.25 hr” value is recorded as 46% and the “MSRA (% modification) 10 μM 0.50 hr” value is 67%.
